According to patent US20060069132A1, “Azolecarboxamide herbicides” (priority 2004, published 2006):

Experiments:
barnyardgrass = assay: Test B pre-/postemergence herbicide test; type: in vivo, Echinochloa crus-galli; conditions: for Barnyardgrass plant response rating: postemergence
Method in brief: (§1)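 Species tested were Echinochloa crus-galli, Ipomoea coccinea, Xanthium strumarium and Oryza sativa, treated both before emergence and at the 1- to 4-leaf stage; rice and barnyardgrass were also tested under flooding at 2 leaves. Greenhouse incubation lasted 13–15 days before visual 0–100 scoring.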

Surinam grass = assay: Test B pre-/postemergence herbicide test; type: in vivo, Urochloa decumbens; conditions: for Surinam Grass plant response rating: postemergence
Method in brief: (§2)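 Greenhouse pot assay with simultaneous preemergence (treated seed) and postemergence (2–18 cm seedlings) applications of surfactant-containing, non-phytotoxic solvent formulations. Response scored visually 13–15 days later on a 0–100 scale, 100 meaning complete control.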

corn = assay: Test B pre-/postemergence herbicide test; type: in vivo, Zea mays; conditions: for Corn plant response rating: postemergence
Method in brief: as §2

large crabgrass = assay: Test B pre-/postemergence herbicide test; type: in vivo, Digitaria sanguinalis; conditions: for Crabgrass, Large plant response rating: postemergence
Method in brief: as §2

giant foxtail = assay: Test B pre-/postemergence herbicide test; type: in vivo, Setaria faberi; conditions: for Foxtail, Giant plant response rating: postemergence
Method in brief: as §2

lambsquarters = assay: Test B pre-/postemergence herbicide test; type: in vivo, Chenopodium album; conditions: for Lambsquarters plant response rating: postemergence
Method in brief: as §2

morningglory = assay: Test B pre-/postemergence herbicide test; type: in vivo, Ipomoea coccinea; conditions: for Morningglory plant response rating: postemergence
Method in brief: as §1

pigweed = assay: Test B pre-/postemergence herbicide test; type: in vivo, Amaranthus retroflexus; conditions: for Pigweed plant response rating: postemergence
Method in brief: as §2

velvetleaf = assay: Test B pre-/postemergence herbicide test; type: in vivo, Abutilon theophrasti; conditions: for Velvetleaf plant response rating: postemergence
Method in brief: as §2

blackgrass = assay: Test B postemergence herbicide test; type: in vivo, Alopecurus myosuroides; conditions: postemergence
Method in brief: (§3)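 Plants grow to 1- to 4-leaf stage (2–18 cm) for postemergence spraying, or to 2-leaf stage for the paddy test. Formulated compound is applied. Greenhouse holding lasts 13–15 days. Response is scored visually relative to controls, 0 no effect to 100 complete control; a dash means no result.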

wheat = assay: Test B postemergence herbicide test; type: in vivo, Triticum aestivum; parameters: key to Wheat plant response rating: 0 = no effect, 100 = complete control; conditions: postemergence
Method in brief: (§4)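 Formulated test chemicals went onto postemergence plants measuring 2 to 18 cm, at one to four leaves. For the paddy assay, species had reached two leaves. Scoring took place 13–15 days later by eye, relative to untreated plants, using 0 for no effect up to 100 for full control.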

wild oat = assay: Test B postemergence herbicide test; type: in vivo, Avena fatua; conditions: postemergence
Method in brief: as §4

rice = assay: Test B flooded paddy test; type: in vivo, Oryza sativa; conditions: 1000 g ai/ha, scale 0 to 100 (0 no effect, 100 complete control)
Method in brief: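 Greenhouse test; postemergence application to plants at 1–4 leaves (2–18 cm); paddy species at 2 leaves; evaluated visually vs controls at 13–15 days; scale 0–100 (100 = complete control).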

[1] = tested on: small flower umbrella sedge; assay: Test B flooded paddy test; type: in vivo, Cyperus difformis; conditions: 1000 g ai/ha, scale 0 to 100 (0 no effect, 100 complete control)
Method in brief: as §3

ducksalad = assay: Test B flooded paddy test; type: in vivo, Heteranthera limosa; conditions: 1000 g ai/ha, scale 0 to 100 (0 no effect, 100 complete control)
Method in brief: as §3

[2] = 125 g ai/ha, 0 = no effect, 100 = complete control, preemergence
[3] = 125 g ai/ha, visual rating, scale 0 (no effect) to 100 (complete control)
[4] = 500 g ai/ha, visual rating, 0 = no effect, 100 = complete control, preemergence
[5] = 500 g ai/ha, scale 0 to 100, 0 is no effect, 100 is complete control
[6] = 125 g ai/ha, 0 is no effect, 100 is complete control, preemergence

In the case of CCOC(=O)c1cccc(NC(=O)c2cc(C(C)(C)C)nn2C)n1 [Compound 313], the “Barnyardgrass plant response rating (0 to 100 scale)” value (barnyardgrass; [2]) is reported as 80, the “Barnyardgrass plant response rating” value (barnyardgrass; [3]) is reported as 30 and the “Plant response rating, Barnyardgrass” value (barnyardgrass; [4]) is reported as 90. The “Barnyardgrass plant response rating” value (barnyardgrass; [5]) was 50, the “Surinam Grass plant response rating (0 to 100 scale)” value (Surinam grass; [2]) was 30 and the “Surinam Grass plant response rating” value (Surinam grass; [3]) was 10. The “Plant response rating, Surinam Grass” value (Surinam grass; [4]) was 80, the “Surinam Grass plant response rating” value (Surinam grass; [5]) was 20 and the “Corn plant response rating (0 to 100 scale)” value (corn; [2]) was 10. The “Corn plant response rating” value (corn; [3]) was 10, the “Plant response rating, Corn” value (corn; [4]) was 30 and the “Corn plant response rating” value (corn; [5]) was 20. For the same compound, the “Crabgrass, Large plant response rating (0 to 100 scale)” value (large crabgrass; [2]) was 30, the “Crabgrass, Large plant response rating” value (large crabgrass; [3]) was 10 and the “Plant response rating, Crabgrass, Large” value (large crabgrass; [4]) was 90. The “Crabgrass, Large plant response rating” value (large crabgrass; [5]) was 20, the “Foxtail, Giant plant response rating (0 to 100 scale)” value (giant foxtail; [2]) was 40 and the “Foxtail, Giant plant response rating” value (giant foxtail; [3]) was 20. The “Plant response rating, Foxtail, Giant” value (giant foxtail; [4]) was 100, the “Foxtail, Giant plant response rating” value (giant foxtail; [5]) was 50 and the “Lambsquarters plant response rating (0 to 100 scale)” value (lambsquarters; [2]) was 100. For the same compound, the “Lambsquarters plant response rating” value (lambsquarters; [3]) was 60, the “Plant response rating, Lambsquarters” value (lambsquarters; [4]) was 100 and the “Lambsquarters plant response rating” value (lambsquarters; [5]) was 90. For the same compound, the “Morningglory plant response rating (0 to 100 scale)” value (morningglory; [2]) was 10, the “Morningglory plant response rating” value (morningglory; [3]) was 0 and the “Plant response rating, Morningglory” value (morningglory; [4]) was 40. For the same compound, the “Morningglory plant response rating” value (morningglory; [5]) was 80, the “Pigweed plant response rating (0 to 100 scale)” value (pigweed; [2]) was 100 and the “Pigweed plant response rating” value (pigweed; [3]) was 60. For the same compound, the “Plant response rating, Pigweed” value (pigweed; [4]) was 100, the “Pigweed plant response rating” value (pigweed; [5]) was 70 and the “Velvetleaf plant response rating” value (velvetleaf; [3]) was 60. For the same compound, the “Plant response rating, Velvetleaf” value (velvetleaf; [4]) was 100, the “Velvetleaf plant response rating” value (velvetleaf; [5]) was 70 and the “Blackgrass plant response rating” value (blackgrass; [3]) was 0. For the same compound, the “Blackgrass plant response rating” value (blackgrass; [5]) was 10, the “Wheat plant response rating” value (wheat; [3]) was 0 and the “Wheat plant response rating” value (wheat; [5]) was 10. For the same compound, the “Oat, Wild plant response rating” value (wild oat; [3]) was 20, the “Oat, Wild plant response rating” value (wild oat; [5]) was 30 and the “Rice plant response rating” value (rice) was 80. The “Sedge, Umbrella plant response rating” value [1] was 80 and the “Ducksalad plant response rating” value (ducksalad) was 80.

With CCn1nc(C(C)(C)C)cc1C(=O)Nc1cccc(OC(F)F)c1 [Compound 332] the “Plant response rating (0 to 100 scale), Barnyardgrass” value (barnyardgrass; [6]) was 10, the “Barnyardgrass plant response rating” value (barnyardgrass; [3]) was 20 and the “Plant response rating, Barnyardgrass” value (barnyardgrass; [4]) was 60. The “Barnyardgrass plant response rating” value (barnyardgrass; [5]) was 60, the “Plant response rating (0 to 100 scale), Surinam Grass” value (Surinam grass; [6]) was 10 and the “Surinam Grass plant response rating” value (Surinam grass; [3]) was 20. The “Plant response rating, Surinam Grass” value (Surinam grass; [4]) was 20, the “Surinam Grass plant response rating” value (Surinam grass; [5]) was 40 and the “Plant response rating (0 to 100 scale), Corn” value (corn; [6]) was 0. For the same compound, the “Corn plant response rating” value (corn; [3]) was 0, the “Plant response rating, Corn” value (corn; [4]) was 0 and the “Corn plant response rating” value (corn; [5]) was 10. The “Plant response rating (0 to 100 scale), Crabgrass, Large” value (large crabgrass; [6]) was 40, the “Crabgrass, Large plant response rating” value (large crabgrass; [3]) was 50 and the “Plant response rating, Crabgrass, Large” value (large crabgrass; [4]) was 100. The “Crabgrass, Large plant response rating” value (large crabgrass; [5]) was 80, the “Plant response rating (0 to 100 scale), Foxtail, Giant” value (giant foxtail; [6]) was 20 and the “Foxtail, Giant plant response rating” value (giant foxtail; [3]) was 30. The “Plant response rating, Foxtail, Giant” value (giant foxtail; [4]) was 60, the “Foxtail, Giant plant response rating” value (giant foxtail; [5]) was 50 and the “Plant response rating (0 to 100 scale), Lambsquarters” value (lambsquarters; [6]) was 90. For the same compound, the “Lambsquarters plant response rating” value (lambsquarters; [3]) was 80, the “Plant response rating, Lambsquarters” value (lambsquarters; [4]) was 100 and the “Lambsquarters plant response rating” value (lambsquarters; [5]) was 100. For the same compound, the “Plant response rating (0 to 100 scale), Morningglory” value (morningglory; [6]) was 10, the “Morningglory plant response rating” value (morningglory; [3]) was 40 and the “Plant response rating, Morningglory” value (morningglory; [4]) was 30. For the same compound, the “Morningglory plant response rating” value (morningglory; [5]) was 70, the “Plant response rating (0 to 100 scale), Pigweed” value (pigweed; [6]) was 100 and the “Pigweed plant response rating” value (pigweed; [3]) was 100. For the same compound, the “Plant response rating, Pigweed” value (pigweed; [4]) was 100, the “Pigweed plant response rating” value (pigweed; [5]) was 100 and the “Plant response rating (0 to 100 scale), Velvetleaf” value (velvetleaf; [6]) was 30. For the same compound, the “Velvetleaf plant response rating” value (velvetleaf; [3]) was 60, the “Velvetleaf plant response rating” value (velvetleaf; [5]) was 90 and the “Blackgrass plant response rating” value (blackgrass; [3]) was 40. The “Blackgrass plant response rating” value (blackgrass; [5]) was 80, the “Wheat plant response rating” value (wheat; [3]) was 20 and the “Wheat plant response rating” value (wheat; [5]) was 30. The “Oat, Wild plant response rating” value (wild oat; [3]) was 40, the “Oat, Wild plant response rating” value (wild oat; [5]) was 60 and the “Rice plant response rating” value (rice) was 50. For the same compound, the “Sedge, Umbrella plant response rating” value [1] was 90 and the “Ducksalad plant response rating” value (ducksalad) was 90.
